From ChEMBL document CHEMBL1201862, “PubChem BioAssay data set” (2004)
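Test compounds were applied to cells in 96-well plates for 48 hours at 5 doses. Here, GI50 denotes the concentration required for 50% inhibition of growth.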 Calls of active or inactive are those of the source. Rule as the data show it: active = GI50 up to about 1.1 µM and inactive = higher.

Tests used:
Test in all cases: NCI tumour cell line growth inhibition, 48 h
[1] = system: 786-0
[2] = system: HCC 2998
[3] = system: HCT-116
[4] = system: HL-60
[5] = system: HOP-62
[6] = system: IGROV-1
[7] = system: KM12
[8] = system: LOX IMVI
[9] = system: MDA-N
[10] = system: NCI-H460
[11] = system: OVCAR-4
[12] = system: RPMI-8226
[13] = system: RXF 393
[14] = system: SF-295
[15] = system: SN12C
[16] = system: TK-10
[17] = system: U-251
[18] = system: UACC-257
[19] = system: UO-31
[20] = system: Malme-3M

Measured: GI50

CCOC(=O)c1c(C)nc2c3ccccc3c(C#N)c(C)n12
inactive: [1] > 10 µM | [2] > 100 µM | [3] 37.2 µM | [4] > 100 µM | [5] 26.2 µM | [6] 23 µM | [7] > 100 µM | [8] > 100 µM | [9] > 10 µM | [10] 49.4 µM | [11] 94 µM | [12] > 100 µM | [13] 33.4 µM | [14] 34.9 µM | [15] > 100 µM | [16] > 100 µM | [17] 70.8 µM | [18] > 100 µM | [19] 15.6 µM

O=c1c2c3c(sc2nc2n1N=CN(c1ccc(F)cc1)C2)CCCC3
inactive: [1] > 100 µM | [2] > 100 µM | [3] > 100 µM | [5] > 100 µM | [6] > 100 µM | [7] > 100 µM | [8] > 100 µM | [9] > 100 µM | [20] > 100 µM | [10] > 100 µM | [11] > 100 µM | [12] > 100 µM | [13] > 100 µM | [14] > 100 µM | [15] > 100 µM | [16] > 100 µM | [17] > 100 µM | [18] > 100 µM | [19] > 100 µM

COc1ccc(/C=C2\C(=O)N(C)C(=O)c3cc(OC)c(OC)cc32)cc1OC
inactive: [1] 43.5 µM | [2] > 100 µM | [3] 29.4 µM | [4] 14.5 µM | [5] 29.9 µM | [6] 29.2 µM | [8] 16 µM | [9] 24.3 µM | [10] 37.5 µM | [11] 38.9 µM | [12] 27.7 µM | [13] 23.6 µM | [14] 37.8 µM | [15] 32.8 µM | [16] 43.1 µM | [17] 33 µM | [18] 47.3 µM | [19] 48 µM

CSc1nc(Nc2cccc(C(F)(F)F)c2)c2c(N)nn(C)c2n1
inactive: [1] > 100 µM | [2] 89.7 µM | [3] > 100 µM | [5] > 100 µM | [6] > 100 µM | [7] > 100 µM | [8] 71.1 µM | [9] > 100 µM | [20] 59.4 µM | [10] 50.9 µM | [11] > 100 µM | [12] > 100 µM | [13] 20.5 µM | [14] 38 µM | [15] > 100 µM | [16] > 100 µM | [17] > 100 µM | [18] > 100 µM | [19] > 100 µM
